Experiments:
Format in all cases: toxicity, cell-based
HEK-293T = experiment: Incucyte cell viability with HEK293T; settings: human, 10 µM, compound concentration 10 uM
Fibroblast = experiment: Incucyte cell viability with human fibroblast; settings: 10 µM, compound concentration 10 uM
U2OS = experiment: Incucyte cell viability with U2OS; settings: human, 10 µM, compound concentration 10 uM
Further: unitless GR value; below 1 slowed growth and below 0 cell loss.

Compound | Growth Rate (HEK-293T; 0 h, replicate number 1) | Growth Rate (HEK-293T; 0 h, replicate number 2) | Growth Rate (HEK-293T; 6 h, replicate number 1) | Growth Rate (HEK-293T; 18 h, replicate number 1) | Growth Rate (HEK-293T; 24 h, replicate number 1) | Growth Rate (Fibroblast; 0 h, replicate number 2) | Growth Rate (Fibroblast; 6 h, replicate number 1) | Growth Rate (Fibroblast; 24 h, replicate number 1) | Growth Rate (U2OS; 6 h, replicate number 1) | Growth Rate (U2OS; 12 h, replicate number 1) | Growth Rate (U2OS; 24 h, replicate number 1) | Growth Rate (HEK-293T; 12 h, replicate number 1) | Growth Rate (Fibroblast; 6 h, replicate number 2) | Growth Rate (Fibroblast; 24 h, replicate number 2) | Growth Rate (U2OS; 12 h, replicate number 2) | Growth Rate (Fibroblast; 12 h, replicate number 2) | Growth Rate (Fibroblast; 18 h, replicate number 2) | Growth Rate (Fibroblast; 0 h, replicate number 1) | Growth Rate (Fibroblast; 12 h, replicate number 1) | Growth Rate (Fibroblast; 18 h, replicate number 1) | other results
O=C(O)CCCCN(CCc1ccccc1OCc1ccc(CCc2ccccc2)cc1)Cc1ccc(C(=O)O)cc1 | 0.96 | 0.47 | 0.91 | 0.87 | 0.99 | -0.44 | 0.92 | 0.98 | 0.32 | 0.91 | 0.86 |  |  |  |  |  |  |  |  |  | Growth Rate (U2OS; 0 h, replicate number 1): 0.14; Growth Rate (U2OS; 18 h, replicate number 1): 0.83
O=C(O)C[C@H]1CC[C@H](c2ccc(NC(=O)c3nnc(Nc4ccc(F)c(F)c4)o3)cc2)CC1 | 0.29 | -0.23 | 0.74 | 0.76 | 0.86 |  |  |  |  |  |  | 0.69 | 0.97 | 0.99 | 0.72 |  |  |  |  |  | Growth Rate (U2OS; 6 h, replicate number 2): 0.7; Growth Rate (U2OS; 18 h, replicate number 2): 0.93; Growth Rate (U2OS; 24 h, replicate number 2): 0.96
O=C(O)c1ccc(OCCCc2ccc(OCCCCOC3CCCCC3)cc2)c(C(=O)NC2CCCC(C(=O)O)C2)c1 (centres undefined) | -0.01 |  | 0.96 |  |  |  |  |  |  |  | 0.89 | 0.94 | -0.02 | 0.73 |  | 0.19 | 0.41 |  |  |  | Growth Rate (HEK-293T; 18 h, replicate number 2): 0.94; Growth Rate (HEK-293T; 24 h, replicate number 2): 0.92
COP(=O)(CCC(N)C(=O)O)Oc1cccc(CC(=O)O)c1 (centres undefined) | 0.66 |  |  | 0.94 | 0.92 | -0.57 | 0.49 | 0.74 | 0.8 |  |  | 0.97 |  |  | 0.91 |  |  | -1 | 0.92 | 0.86 | Growth Rate (U2OS; 0 h, replicate number 1): 0.98; Growth Rate (U2OS; 24 h, replicate number 2): 0.93
COCc1c(-c2cc3cc(C)cc(OC)c3s2)c2c(N)ncnn2c1CN[C@@H]1CCNC1=O | -0.25 | -0.02 | 0.47 | 0.61 | 0.62 |  | 0.36 | 0.46 | 0.62 | 0.45 | 0.44 | 0.43 |  | 0.98 | 0.77 |  | 0.77 | -1 | 0.6 | 0.59 | Growth Rate (HEK-293T; 6 h, replicate number 2): 0.58; Growth Rate (HEK-293T; 12 h, replicate number 2): 0.2; Growth Rate (HEK-293T; 18 h, replicate number 2): 0.49; Growth Rate (HEK-293T; 24 h, replicate number 2): 0.65; Growth Rate (U2OS; 0 h, replicate number 2): 0.73; Growth Rate (U2OS; 18 h, replicate number 1): 0.84; Growth Rate (U2OS; 18 h, replicate number 2): 0.85; Growth Rate (U2OS; 24 h, replicate number 2): 0.9
CC(=O)c1c(C)c2cnc(Nc3ccc(N4CCN(CCOCCOCCOCCNC(=O)COc5cccc6c5C(=O)N(C5CCC(=O)NC5=O)C6=O)CC4)cn3)nc2n(C2CCCC2)c1=O (centres undefined) | 0.95 |  |  |  |  | 0.18 |  |  |  | 0.99 |  |  |  | 0.89 | 0.93 | 0.92 |  |  |  |  | 
O=C(O)c1ccc2c(c1)nc(NCc1ccccc1)c1ncncc12 | -0.17 | -0.9 |  |  |  | -0.94 |  |  |  |  |  |  |  |  |  |  |  | -0.98 | 0.74 |  | Growth Rate (U2OS; 0 h, replicate number 1): 0.98
CCn1c(CNC(=O)c2ncc(C)nc2N)[n+](CC)c2ccc(C(=O)N(C)CCN(C)C)cc21.Cl.Cl.[Cl-] | 0.03 |  |  |  | 1 | -0.3 | 0 | 0.9 | 0.58 | 0.62 | 0.97 | 0.97 |  |  | 0.9 |  |  | -1 | 0.87 | 0.98 | Growth Rate (U2OS; 0 h, replicate number 2): 0.31; Growth Rate (U2OS; 6 h, replicate number 2): 0.99
COc1ccc(-c2c(-c3ccccc3)oc3ncnc(O[C@H](C)CCCCC(=O)O)c23)cc1 | 0.1 | 0.14 |  |  |  |  | 0.79 | 0.88 |  | 0.94 |  |  | -0.43 |  |  | 0.48 | 0.98 | -1 |  |  | 
NC(=O)OC[C@H](NC(=O)Cn1nc(-c2ccc(Cl)cc2)n(C[C@H](O)C(F)(F)F)c1=O)c1cccc(C(F)(F)F)c1 | 0.72 | -0.43 |  | 0.84 | 0.71 | 0.27 | 0.56 | 0.84 | 0.83 | 0.85 | 0.9 | 0.8 | -0.17 | 0.7 |  | 0.75 | 0.65 |  | 0.83 | 0.71 | Growth Rate (HEK-293T; 18 h, replicate number 2): 0.83; Growth Rate (HEK-293T; 24 h, replicate number 2): 0.79; Growth Rate (U2OS; 0 h, replicate number 1): 0.95
CO[C@H]1CC[C@H](N(c2cc(F)c(Oc3ncc(Cn4nccn4)cc3C(F)(F)F)cc2C(=O)O)C(=O)[C@H]2CC[C@H](C)CC2)CC1 | 0.27 | -0.25 |  |  |  |  | 0.07 | 0.77 | 0.6 |  |  |  | -0.41 | 0.67 | 0.82 |  |  | -1 |  | 0.76 | Growth Rate (U2OS; 0 h, replicate number 1): 0.66; Growth Rate (U2OS; 6 h, replicate number 2): 0.76; Growth Rate (U2OS; 18 h, replicate number 2): 1; Growth Rate (U2OS; 24 h, replicate number 2): 0.87
Cc1nc2ccc(Cl)cc2c(-c2ccccc2)c1CC(=O)O.Cl | 0.38 |  |  |  |  |  |  |  | 0.43 |  |  |  |  | 0.96 | 0.93 | 0.53 | 0.88 |  |  |  | Growth Rate (U2OS; 0 h, replicate number 1): 0.45
C1CCC(NC2CCCCC2)CC1.Cc1cc(Cl)ccc1S(=O)(=O)NC[C@H]1C2CCC(CC2)[C@@H]1/C=C\CCCC(=O)O | 0.61 |  |  |  |  | -0.12 | 0.25 |  |  |  |  |  | 0.75 |  |  | 0.97 | 0.9 |  |  |  | Growth Rate (U2OS; 18 h, replicate number 2): 0.99
Oc1c(-c2cccnc2)cnn1-c1ccccn1 | 0.54 | -0.2 | 0.91 |  |  | 0.86 |  | 0.87 | 0.87 |  | 0.84 |  |  | 0.59 |  |  | 0.44 |  |  |  | 
CCCN1CCC(C#N)(NC(=O)[C@H](CC(C)(C)C)NC(=O)N2CCOCC2)CC1 | 0.04 |  |  |  |  | -0.89 | 0.97 | 0.83 | 0.96 |  |  |  |  |  |  | 0.45 |  |  | 0.82 | 0.88 | Growth Rate (U2OS; 0 h, replicate number 2): 0.82
Cc1c(N2CCCC2)nc2ccc(Br)cc2c1C(=O)NC[C@H](CCC(=O)O)c1ccccc1Cl.Cl.O | 0.22 | -0.18 |  |  |  | -0.4 | 0.4 |  | 0.65 | 0.97 | 0.91 |  |  |  |  | 0.93 |  | -1 |  |  | Growth Rate (U2OS; 0 h, replicate number 2): -0.04; Growth Rate (U2OS; 18 h, replicate number 1): 0.93; Growth Rate (U2OS; 18 h, replicate number 2): 0.99; Growth Rate (U2OS; 24 h, replicate number 2): 0.92
CC(C)(C)c1cc(NC(=O)c2csc(Nc3ccc(Cl)cc3)n2)no1 | 0.27 | -0.44 |  | 0.94 | 0.97 |  | 0.89 | 0.8 |  |  | -0.59 |  |  | 0.87 |  | 0.46 | 0.74 | -1 |  |  | Growth Rate (HEK-293T; 6 h, replicate number 2): 0.84; Growth Rate (HEK-293T; 12 h, replicate number 2): 0.99
Nc1ncc2c(n1)-c1c([nH]c3ccc(C4=CCOCC4)cc13)CCC2 | 0.56 | -0.64 | -0.33 | 0.18 | 0.37 | -0.45 |  | 0.68 | 0.74 |  | 0.76 | -0.13 |  | 0.71 | 0.98 | 0.71 | 0.96 |  | 0.69 | 0.73 | Growth Rate (HEK-293T; 6 h, replicate number 2): -0.1; Growth Rate (HEK-293T; 12 h, replicate number 2): -0.09; Growth Rate (HEK-293T; 18 h, replicate number 2): 0.36; Growth Rate (HEK-293T; 24 h, replicate number 2): 0.41; Growth Rate (U2OS; 0 h, replicate number 2): 0.72; Growth Rate (U2OS; 18 h, replicate number 1): 0.96
C[C@@H]1CC(=O)N(C2CC2)N=C1c1ccc(NC(=O)N2Cc3ccncc3C2)cc1 | 0.95 | -0.07 | 0.41 | 0.46 | 0.28 | -0.77 | 0.8 |  | 0.59 | 0.94 | 0.95 | 0.41 | -0.07 | 0.81 |  | 0.57 | 0.85 | -0.95 |  |  | Growth Rate (HEK-293T; 6 h, replicate number 2): 0.39; Growth Rate (HEK-293T; 12 h, replicate number 2): 0.67; Growth Rate (HEK-293T; 18 h, replicate number 2): 0.53; Growth Rate (HEK-293T; 24 h, replicate number 2): 0.32
